The text below walks through data of ChEMBL document CHEMBL1124819, “1,9-Alkano-bridged 2,3,4,5-tetrahydro-1H-3-benzazepines with affinity for the alpha 2-adrenoceptor and the 5-HT1A receptor” (J Med Chem, 1990).

What is called Ki is the equilibrium dissociation constant of an inhibitor or competing ligand from its target. Higher therefore signals weaker binding.

Experiment [1] concerns the target T1, 5-hydroxytryptamine receptor 1A (Rattus norvegicus, UniProt P19327).
T1 sequence (P19327 whole entry): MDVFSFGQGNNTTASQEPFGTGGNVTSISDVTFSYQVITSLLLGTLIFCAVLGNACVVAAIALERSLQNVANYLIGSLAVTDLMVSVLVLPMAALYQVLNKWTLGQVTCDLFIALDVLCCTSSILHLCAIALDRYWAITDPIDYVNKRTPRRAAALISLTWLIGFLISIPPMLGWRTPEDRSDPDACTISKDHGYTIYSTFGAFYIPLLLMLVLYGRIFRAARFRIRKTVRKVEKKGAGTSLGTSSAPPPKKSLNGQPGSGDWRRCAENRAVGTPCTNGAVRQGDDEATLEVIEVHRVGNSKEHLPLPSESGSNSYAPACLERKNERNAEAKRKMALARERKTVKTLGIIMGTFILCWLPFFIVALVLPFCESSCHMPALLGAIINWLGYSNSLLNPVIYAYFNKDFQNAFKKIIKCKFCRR
The experiment in a line: Binding affinity against 5-hydroxytryptamine 1A receptor in rat cerebral cortical membrane using [3H]-8-OH-DPAT as radioligand. The format is cell membranes.

For experiment [2], the target named is T2, Adrenergic receptor alpha-2 (Rattus norvegicus, UniProt P22086+P19328+P22909).
T2 sequence (P22086 whole entry): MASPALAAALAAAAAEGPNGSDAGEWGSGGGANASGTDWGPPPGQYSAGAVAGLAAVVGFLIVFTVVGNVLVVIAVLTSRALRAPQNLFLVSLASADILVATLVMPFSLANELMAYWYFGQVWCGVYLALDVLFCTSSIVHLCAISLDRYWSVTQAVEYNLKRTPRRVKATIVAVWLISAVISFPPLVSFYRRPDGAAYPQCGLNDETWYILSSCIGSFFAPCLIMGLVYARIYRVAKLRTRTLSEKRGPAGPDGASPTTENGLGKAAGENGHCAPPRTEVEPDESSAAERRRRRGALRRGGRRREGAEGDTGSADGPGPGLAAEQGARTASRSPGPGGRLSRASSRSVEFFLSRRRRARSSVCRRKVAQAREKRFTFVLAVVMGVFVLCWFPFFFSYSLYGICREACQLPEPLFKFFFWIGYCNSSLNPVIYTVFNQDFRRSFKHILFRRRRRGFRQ
T2 sequence (P19328 whole entry): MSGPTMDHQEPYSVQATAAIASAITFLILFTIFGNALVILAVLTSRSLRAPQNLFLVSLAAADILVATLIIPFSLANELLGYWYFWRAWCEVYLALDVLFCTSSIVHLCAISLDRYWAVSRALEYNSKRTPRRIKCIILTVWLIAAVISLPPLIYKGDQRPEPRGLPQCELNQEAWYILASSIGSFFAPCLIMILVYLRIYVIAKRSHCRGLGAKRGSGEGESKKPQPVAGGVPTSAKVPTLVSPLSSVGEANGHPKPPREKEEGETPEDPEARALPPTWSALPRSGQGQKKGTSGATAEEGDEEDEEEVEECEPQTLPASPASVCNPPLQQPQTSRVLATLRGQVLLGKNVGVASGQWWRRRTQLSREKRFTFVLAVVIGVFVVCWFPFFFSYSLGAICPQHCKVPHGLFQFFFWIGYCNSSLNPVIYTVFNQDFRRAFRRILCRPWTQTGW
T2 sequence (P22909 whole entry): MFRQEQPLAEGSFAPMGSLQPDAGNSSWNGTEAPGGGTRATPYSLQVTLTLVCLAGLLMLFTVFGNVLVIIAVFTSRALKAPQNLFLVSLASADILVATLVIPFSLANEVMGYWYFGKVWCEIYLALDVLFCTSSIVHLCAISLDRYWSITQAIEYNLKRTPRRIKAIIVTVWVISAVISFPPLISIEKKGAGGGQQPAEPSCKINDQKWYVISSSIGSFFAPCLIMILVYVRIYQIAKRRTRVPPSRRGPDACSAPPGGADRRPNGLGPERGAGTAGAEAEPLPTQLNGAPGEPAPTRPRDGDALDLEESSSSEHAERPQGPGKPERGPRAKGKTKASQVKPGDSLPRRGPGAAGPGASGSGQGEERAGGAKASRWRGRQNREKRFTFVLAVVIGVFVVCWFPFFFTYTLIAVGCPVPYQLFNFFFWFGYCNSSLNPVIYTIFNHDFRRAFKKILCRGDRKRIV
In words: Binding affinity against alpha-2 adrenergic receptor in rat cerebral cortical membrane using [3H]yohimbine as radioligand. The format is cell membranes.

Turning to `Br.CN1CCc2cccc3c2C(CC3)C1` (stereo not given), in experiment [1], the Ki is 15.8 nM. For the same compound, in experiment [2], the “Log Ki” value is given as -6.6.
The like results for `Br.CN1CCc2c(Cl)ccc3c2C(CC3)C1` (stereo not given) were, in that order, 25.1 nM and -8.1.
In the same order, the values of `Br.COc1ccc2c3c1CCN(C)CC3CC2` (stereo not given) are 100 nM and -6.9.
In the same order, the values of `Br.CN1CCc2c(Cl)ccc3[nH]cc(c23)C1` are 31.6 nM and -6.8.
`Br.CN1CCc2ccc(Cl)c3c2C(CCCC3)C1` (stereo not given) had a Ki in experiment [1] of 5010 nM. In experiment [2], the “Log Ki” value is -6.2.
In experiment [1], `Cl.O=C1CC2(CCCC2)CC(=O)N1CCCCN1CCc2cccc3c2C(CCC3)C1` (stereo not given) gave a Ki of 39.8 nM. Besides, in experiment [2], the “Log Ki” value is -5.9.
In the same order, the values of `Cl.c1ccc(CCN2CCc3cccc4c3C(CCC4)C2)cc1` (stereo not given) are 794 nM and -6.2.
In turn, `C=CCN1CCc2c(OC)ccc3c2C(CCC3)C1.Cl` (stereo not given) showed a Ki in experiment [1] of 12.6 nM. Further, the “Log Ki” value in experiment [2] is recorded as -6.
In the same order, the values of `CCCN1CCc2cccc3c2C(CCC3)C1.Cl` (stereo not given) are 50.1 nM and -6.
The like results for `CCN1CCc2cccc3c2C(CCC3)C1.Cl` (stereo not given) were, in that order, 50.1 nM and -6.2.
Compound `C=CCOc1ccc2c3c1CCN(C)CC3CCC2.Cl` (stereo not given) had a Ki in experiment [1] of 631 nM. Further, in experiment [2], the “Log Ki” value is -7.5.
In turn, `CN1CCc2c(O)ccc3c2C(CCC3)C1.Cl` (stereo not given) had a Ki in experiment [1] of 316 nM. Also, in experiment [2], the “Log Ki” value was -6.2.
In experiment [1], `COc1ccc2c3c1CCN(C)CC3CCC2.Cl` (stereo not given) had a Ki of 25.1 nM. Further, the “Log Ki” value in experiment [2] is on record as -6.8.
In the same order, the values of `COc1ccc2c3c1CN(C)CC3CCC2.Cl` (stereo not given) are 200 nM and -6.8.
The like results for `COc1ccc2c3c1CN(C)CCC3CCC2.Cl` (stereo not given) were, in that order, 6310 nM and -5.9.
With `CN1CCc2c[nH]c3cccc(c23)C1.Cl`, the Ki in experiment [1] was 1260 nM. For the same compound, in experiment [2], the “Log Ki” value is -6.
The compound `COc1ccc2c3c1CCN(C)C3CCC2` (stereo not given) had a Ki in experiment [1] of 3160 nM.
`CN1CCc2cccc3c2C(CCC3)C1.Cl` (stereo not given): the affinity in experiment [1], expressed as Ki, was 50.1 nM. Besides, in experiment [2], the “Log Ki” value was -5.9.
`CN1CCc2cccc3c2[C@H](CCC3)C1.Cl`: the affinity in experiment [1], expressed as Ki, was 31.6 nM. Further, the “Log Ki” value in experiment [2] is given as -5.6.
`O=C1CC2(CCCC2)CC(=O)N1CCCCN1CCc2ccccc2CC1` gave a Ki in experiment [1] of 25.1 nM.
In experiment [1], `CN1CCc2cccc3c2C(CCCC3)C1.Cl` (stereo not given) had a Ki of 398 nM. The “Log Ki” value in experiment [2] was -5.9.
The like results for `C=CCN1CCc2cccc3c2C(CCC3)C1.Cl` (stereo not given) were, in that order, 20 nM and -6.1.
In the same order, the values of `CN1CCc2cccc3c2[C@@H](CCC3)C1.Cl` are 63.1 nM and -6.4.
In the same order, the values of `Cl.c1cc2c3c(c1)CCNCC3CCC2` (stereo not given) are 200 nM and -5.9.
For `CN1CCc2cccc(Cl)c2CC1`, affinity in experiment [1] was put at a Ki of 100 nM. Also, in experiment [2], the “Log Ki” value is listed as -8.1.
In the same order, the values of `Br.CN1CCc2cccc3[nH]cc(c23)C1` are 100 nM and -6.3.
On to `O=C1CC2(CCCC2)CC(=O)N1CCCCN1CCc2cccc(Cl)c2CC1`, for which, in experiment [1], the Ki was 5.01 nM.
In experiment [1], `CN1CCc2ccc(Cl)c3c2C(CC3)C1` (stereo not given) had a Ki of 25.1 nM. In addition, in experiment [2], the “Log Ki” value is recorded as -6.8.
The like results for `C=CCN1CCc2c(Cl)ccc3c2C(CCC3)C1` (stereo not given) were, in that order, 7.94 nM and -6.1.
As to `CN1CCc2c(Cl)ccc3c2C(CCCC3)C1` (stereo not given), in experiment [1], the Ki was 79.4 nM. Besides, the “Log Ki” value in experiment [2] is given as -6.5.
The like results for `CN1CCc2ccc(Cl)c3c2[C@@H](CCC3)C1` were, in that order, 126 nM and -6.4.
Regarding `CN1CCc2c(Cl)ccc3c2[C@@H](CCC3)C1`, the affinity in experiment [1] corresponds to a Ki of 20 nM. For the same compound, the “Log Ki” value in experiment [2] is reported as -7.
The like results for `O=C1CC2(CCCC2)CC(=O)N1CCCCN1CCc2c(Cl)ccc3c2C(CCC3)C1` (stereo not given) were, in that order, 7.94 nM and -5.5.
The like results for `CN1CCc2c(Cl)ccc3c2C(CCC3)C1` (stereo not given) were, in that order, 10 nM and -6.9.
In experiment [1], `CN1CCc2c(Cl)ccc3c2[C@H](CCC3)C1` showed a Ki of 6.31 nM. Besides, the “Log Ki” value in experiment [2] is reported as -6.6.
The like results for `CCN1CCc2c(Cl)ccc3c2C(CCC3)C1` (stereo not given) were, in that order, 15.8 nM and -6.5.
The like results for `CN1CCc2ccc(Cl)c3c2[C@H](CCC3)C1` were, in that order, 50.1 nM and -5.8.
`CCCN1CCc2c(Cl)ccc3c2C(CCC3)C1` (stereo not given) showed a Ki in experiment [1] of 31.6 nM. Also, in experiment [2], the “Log Ki” value is listed as -6.4.
In the same order, the values of `CN1CCc2ccc(Cl)c3c2C(CCC3)C1` (stereo not given) are 79.4 nM and -6.
